Experimental data published in patent US12064409B2, “Action of L-citrulline to prevent or treat endothelial dysfunction” (Asklepion Pharmaceuticals, LLC, priority 2021, dated 2024).
Read-outs that look alike come from different tables or passages of the source.

Columns and labels:
[1] = Phase IB trial of intravenous L-citrulline versus placebo in children undergoing cardiopulmonary bypass (IND #66,261); format: in vivo
From the text: FIG. 1. Duration of mechanical ventilation therapy following cardiopulmonary bypass in citrulline treated and control patients.
FIG. 2. Duration of inotrope therapy following cardiopulmonary bypass in citrulline treated and control patients.
FIG. 3. Maximum of mechanical ventilation or inotrope therapy (surrogate for duration of ICU stay) following cardiopulmonary bypass in citrulline treated and control patients.
A recent study^39 carried out under IND #66,261 examined whether maintenance of plasma citrulline levels at steady state levels at or above 100 micromolar would prevent the occurrence of pulmonary complications of cardiopulmonary bypass in children undergoing congenital heart repair surgery. For pulmonary function, the endpoint was the post-operative duration of mechanical ventilation (see FIG. 1). Alternative endpoints included the duration of post-operative inotrope therapy (see FIG. 2) and the length of time in the intensive care unit (see FIG. 3).

COVID-19 (SARS-CoV2) = test: Example I, intravenous citrulline treatment of hospitalized Covid-19 patients; format: in vivo; conditions: intravenous bolus 20 mg/kg then 9 mg/kg per hour infusion up to 10 days
Protocol: Subjects hospitalized and requiring oxygen for an acute hypoxemic respiratory illness due to COVID-19 (SARS-CoV2) will be treated. In addition, subjects will receive standard supportive care for acute hypoxemic respiratory illness and failure. The assessment of efficacy will include collection of plasma for analysis of citrulline and arginine levels at 2 hours, 12 hours, and the alternating morning of study days. Optionally, samples may also be analyzed for D-dimer and angiopoietin-2 levels.
The assessment of efficacy will include collection of plasma for analysis of citrulline and arginine levels at 2 hours, 12 hours, and the alternating morning of hospitalization days. Additional efficacy measures will include clinical outcomes, including progression of acute lung injury and, lengths of hospital and ICU stay. The assessment of safety will include collection of hemodynamic measurements at least every 4 hours on a hospital unit.
Patients will receive an initial intravenous bolus of 20 mg/kg (to a maximum of 1500 mg) L-citrulline over 10 minutes. The infusion solution will be prepared as a 5% isotonic solution (50 mg/mL) in 5% dextrose water. […]
Participant survival will be assessed at hospital discharge. […] Hospital length of stay will be calculated as the number of days from admission to hospital discharge.

[2] = in vivo, iv
[3] = cited from earlier work
[4] = in vivo; cited from earlier work
[5] = human, in vivo; cited from earlier work
[6] = plasma citrulline 12 h postoperatively <37 μmol/L

## NC(=O)NCCC[C@H](N)C(=O)O [citrulline, L-citrulline]
[1]; citrulline treated vs control patients, Wilcoxon rank-sum p=0.0089, plasma citrulline at or above 100 micromolar
  Duration of mechanical ventilation therapy following cardiopulmonary bypass: treated differs from control
[1]; citrulline treated vs control patients, Wilcoxon rank-sum p=0.0351
  Duration of inotrope therapy following cardiopulmonary bypass: treated differs from control
[1]; citrulline treated vs control patients, Wilcoxon rank-sum p=0.0479
  Maximum of mechanical ventilation or inotrope therapy (surrogate for duration of ICU stay) following cardiopulmonary bypass: treated differs from control
[1]; plasma citrulline maintained at or above 100 micromolar, by time on mechanical ventilation and duration of inotrope therapy
  Complications of cardiopulmonary bypass: prevented the complications of bypass
COVID-19 (SARS-CoV2)
  Length of time to an intubation event from the start of study infusion: extend the length of time to an intubation event
  Total length of all mechanical ventilation, including non-invasive modalities: reduce the total length of all mechanical ventilation
[2]
  Drug-associated adverse events: no drug-associated adverse events
[3]; [6]
  Pulmonary hypertension absent (number of patients): 18
  Pulmonary hypertension present (number of patients): 9
[3]; plasma citrulline 12 h postoperatively >37 μmol/L, P value .036
  Pulmonary hypertension present (number of patients): *0
[3]; plasma citrulline 12 h postoperatively >37 μmol/L
  Pulmonary hypertension absent (number of patients): 12
[4]
  half-life of citrulline in plasma: about 1 hour
[5]
  Adverse effects: no observed adverse effects
